Tests used:
Assay in all cases: Test D pre-/postemergence controlled growth environment herbicide test
Type in all cases: in vivo
Details in all cases: scale 0 to 100
[1] = test system: buckwheat, wild (wild buckwheat, Polygonum convolvulus)
From the text: (§1) Seeds of plant species selected from bluegrass (annual bluegrass, Poa annua), blackgrass (Alopecurus myosuroides), canarygrass (Phalaris minor), chickweed (common chickweed, Stellaria media), galium (catchweed bedstraw, Galium aparine), downy bromegrass (Bromus tectorum), field poppy (Papaver rhoeas), field violet (Viola arvensis), foxtail, green (green foxtail, Setaria viridis), deadnettle (henbit deadnettle, Lamium amplexicaule), ryegrass, Italian (Italian ryegrass, Lolium multiflorum), kochia (Kochia scoparia), lambsquarters (Chenopodium album), oilseed rape (Brassica napus), pigweed (Amaranthus retroflexus), chamomile (scentless chamomile, Matricaria inodora), Russian thistle (Salsola kali), speedwell (bird's-eye speedwell, Veronica persica), barley, spring (spring barley, Hordeum vulgare), wheat, spring (spring wheat, Triticum aestivum), buckwheat, wild (wild buckwheat, Polygonum convolvulus), mustard, wild (wild mustard, Sinapis arvensis), oat, wild (wild oat, Avena fatua), radish, wild (wild radish, Raphanus raphanistrum), windgrass (Apera spica-venti), barley, winter (winter barley, Hordeum vulgare), and wheat, winter (winter wheat, Triticum aestivum) were planted into a silt loam soil and treated preemergence with test chemicals formulated in a non-phytotoxic solvent mixture which included a surfactant.
(§2) At the same time, these species were planted in pots containing Redi-Earth® planting medium (Scotts Company, 14111 Scottslawn Road, Marysville, Ohio 43041) comprising spaghnum peat moss, vermiculite, wetting agent and starter nutrients and treated with postemergence applications of the test chemicals formulated in the same manner. Plants ranged in height from 2 to 18 cm (1- to 4-leaf stage). Treated plants and controls were maintained in a controlled growth environment for 14 to 21 d after which time all species were compared to controls and visually evaluated. Plant response ratings, summarized in Table D, are based on a scale of 0 to 100 where 0 is no effect and 100 is complete control. A dash (-) response means no test result.

[2] = test system: deadnettle (henbit deadnettle, Lamium amplexicaule)
From the text: as §1, §2

[3] = test system: downy bromegrass (Bromus tectorum)
From the text: as §1, §2

[4] = test system: field poppy (Papaver rhoeas)
From the text: as §1, §2

[5] = test system: galium (catchweed bedstraw, Galium aparine)
From the text: as §1, §2

kochia (Kochia scoparia) = test system: kochia (Kochia scoparia)
From the text: as §1, §2

[6] = test system: mustard, wild (wild mustard, Sinapis arvensis)
From the text: as §1, §2

[7] = test system: pigweed (Amaranthus retroflexus)
From the text: as §1, §2

[8] = test system: wheat, winter (winter wheat, Triticum aestivum)
From the text: as §1, §2

[9] = test system: windgrass (Apera spica-venti)
From the text: as §1, §2

Cc1cc(=O)n(-c2ccc(F)cc2)nc1Cc1ccnc(C(F)(F)F)c1 [Compound 1, 2-(4-fluorophenyl)-5-methyl-6-[[2-(trifluoromethyl)-4-pyridinyl]methyl]-3(2H)-pyridazinone]
Plant response rating ([1]; Postemergence, 31 g ai/ha): 20 | Plant response rating ([1]; Postemergence, 62 g ai/ha): 20 | Plant response rating ([1]; Postemergence, 125 g ai/ha): 30 | Plant response rating ([1]; Postemergence, 250 g ai/ha): 40 | Plant response rating ([1]; Postemergence, 500 g ai/ha): 60 | Plant response rating ([1]; Preemergence, 31 g ai/ha): 0 | Plant response rating ([1]; Preemergence, 62 g ai/ha): 40 | Plant response rating ([1]; Preemergence, 125 g ai/ha): 70 | Plant response rating ([1]; Preemergence, 250 g ai/ha): 70 | Plant response rating ([1]; Preemergence, 500 g ai/ha): 70 | Plant response rating ([2]; Postemergence, 31 g ai/ha): 10 | Plant response rating ([2]; Postemergence, 62 g ai/ha): 25 | Plant response rating ([2]; Postemergence, 125 g ai/ha): 35 | Plant response rating ([2]; Postemergence, 250 g ai/ha): 50 | Plant response rating ([2]; Postemergence, 500 g ai/ha): 75 | Plant response rating ([2]; Preemergence, 31 g ai/ha): 20 | Plant response rating ([2]; Preemergence, 62 g ai/ha): 40 | Plant response rating ([2]; Preemergence, 125 g ai/ha): 100 | Plant response rating ([2]; Preemergence, 250 g ai/ha): 100 | Plant response rating ([2]; Preemergence, 500 g ai/ha): 100 | Plant response rating ([3]; Postemergence, 31 g ai/ha): 0 | Plant response rating ([3]; Postemergence, 62 g ai/ha): 0 | Plant response rating ([3]; Postemergence, 125 g ai/ha): 10 | Plant response rating ([3]; Postemergence, 250 g ai/ha): 15 | Plant response rating ([3]; Postemergence, 500 g ai/ha): 25 | Plant response rating ([3]; Preemergence, 31 g ai/ha): 0 | Plant response rating ([3]; Preemergence, 62 g ai/ha): 0 | Plant response rating ([3]; Preemergence, 125 g ai/ha): 20 | Plant response rating ([3]; Preemergence, 250 g ai/ha): 25 | Plant response rating ([3]; Preemergence, 500 g ai/ha): 25 | Plant response rating ([4]; Postemergence, 31 g ai/ha): 30 | Plant response rating ([4]; Postemergence, 62 g ai/ha): 60 | Plant response rating ([4]; Postemergence, 125 g ai/ha): 60 | Plant response rating ([4]; Postemergence, 250 g ai/ha): 80 | Plant response rating ([4]; Postemergence, 500 g ai/ha): 85 | Plant response rating ([4]; Preemergence, 31 g ai/ha): 50 | Plant response rating ([4]; Preemergence, 62 g ai/ha): 95 | Plant response rating ([4]; Preemergence, 125 g ai/ha): 95 | Plant response rating ([4]; Preemergence, 250 g ai/ha): 100 | Plant response rating ([4]; Preemergence, 500 g ai/ha): 100 | Plant response rating ([5]; Postemergence, 31 g ai/ha): 30 | Plant response rating ([5]; Postemergence, 62 g ai/ha): 30 | Plant response rating ([5]; Postemergence, 125 g ai/ha): 45 | Plant response rating ([5]; Postemergence, 250 g ai/ha): 70 | Plant response rating ([5]; Postemergence, 500 g ai/ha): 90 | Plant response rating ([5]; Preemergence, 31 g ai/ha): 0 | Plant response rating ([5]; Preemergence, 62 g ai/ha): 10 | Plant response rating ([5]; Preemergence, 250 g ai/ha): 70 | Plant response rating ([5]; Preemergence, 500 g ai/ha): 100 | Plant response rating (kochia (Kochia scoparia); Postemergence, 31 g ai/ha): 15 | Plant response rating (kochia (Kochia scoparia); Postemergence, 62 g ai/ha): 20 | Plant response rating (kochia (Kochia scoparia); Postemergence, 125 g ai/ha): 30 | Plant response rating (kochia (Kochia scoparia); Postemergence, 250 g ai/ha): 50 | Plant response rating (kochia (Kochia scoparia); Postemergence, 500 g ai/ha): 70 | Plant response rating (kochia (Kochia scoparia); Preemergence, 31 g ai/ha): 70 | Plant response rating (kochia (Kochia scoparia); Preemergence, 125 g ai/ha): 80 | Plant response rating (kochia (Kochia scoparia); Preemergence, 250 g ai/ha): 100 | Plant response rating (kochia (Kochia scoparia); Preemergence, 500 g ai/ha): 100 | Plant response rating ([6]; Postemergence, 31 g ai/ha): 20 | Plant response rating ([6]; Postemergence, 62 g ai/ha): 20 | Plant response rating ([6]; Postemergence, 125 g ai/ha): 30 | Plant response rating ([6]; Postemergence, 250 g ai/ha): 80 | Plant response rating ([6]; Postemergence, 500 g ai/ha): 80 | Plant response rating ([6]; Preemergence, 62 g ai/ha): 40 | Plant response rating ([6]; Preemergence, 250 g ai/ha): 95 | Plant response rating ([6]; Preemergence, 500 g ai/ha): 95 | Plant response rating ([7]; Postemergence, 31 g ai/ha): 20 | Plant response rating ([7]; Postemergence, 62 g ai/ha): 30 | Plant response rating ([7]; Postemergence, 125 g ai/ha): 30 | Plant response rating ([7]; Postemergence, 250 g ai/ha): 40 | Plant response rating ([7]; Postemergence, 500 g ai/ha): 50 | Plant response rating ([7]; Preemergence, 62 g ai/ha): 20 | Plant response rating ([7]; Preemergence, 125 g ai/ha): 100 | Plant response rating ([7]; Preemergence, 250 g ai/ha): 100 | Plant response rating ([7]; Preemergence, 500 g ai/ha): 100 | Plant response rating ([8]; Postemergence, 31 g ai/ha): 0 | Plant response rating ([8]; Postemergence, 62 g ai/ha): 0 | Plant response rating ([8]; Postemergence, 125 g ai/ha): 5 | Plant response rating ([8]; Postemergence, 250 g ai/ha): 5 | Plant response rating ([8]; Postemergence, 500 g ai/ha): 10 | Plant response rating ([8]; Preemergence, 31 g ai/ha): 0 | Plant response rating ([8]; Preemergence, 62 g ai/ha): 0 | Plant response rating ([8]; Preemergence, 125 g ai/ha): 10 | Plant response rating ([8]; Preemergence, 250 g ai/ha): 50 | Plant response rating ([8]; Preemergence, 500 g ai/ha): 70 | Plant response rating ([9]; Postemergence, 31 g ai/ha): 20 | Plant response rating ([9]; Postemergence, 62 g ai/ha): 20 | Plant response rating ([9]; Postemergence, 125 g ai/ha): 20 | Plant response rating ([9]; Postemergence, 250 g ai/ha): 20 | Plant response rating ([9]; Postemergence, 500 g ai/ha): 20 | Plant response rating ([9]; Preemergence, 31 g ai/ha): 0 | Plant response rating ([9]; Preemergence, 62 g ai/ha): 20 | Plant response rating ([9]; Preemergence, 125 g ai/ha): 100 | Plant response rating ([9]; Preemergence, 250 g ai/ha): 100 | Plant response rating ([9]; Preemergence, 500 g ai/ha): 100

From patent US10202361B2, “Pyridazinones as herbicides” (E I DU PONT DE NEMOURS AND COMPANY, priority 2014, dated 2019)
